Where a name gives a salt, the structure may show the parent alone.
Columns and labels:
[1] = LD50 by the Litchfield-Wilcoxon method on mice, progressive oral doses; details: mouse, in vivo
Method: (§1) The LD50 was determined by the Litchfield-Wilcoxon method on mice using progressive oral doses. […] The paw volume is checked 2, 4 and 6 hours after inoculating the carrageen.

[2] = tested on: experimental edema induced by carrageen in a rat's paw; test: experimental edema induced by carrageen in a rat's paw; type: in vivo, rat (Sprague Dawley--Charles River); details: for TI (therapeutic index) LD50 /ED50: LD50 mice oral / ED50 rat paw edema; for ED50: Rattus norvegicus, rat paw carrageen edema, dosed 60 minutes before carrageen, paw volume at 2, 4 and 6 hours
Method: as §1

[3] = water-solubility at 20° C.; type: physicochemical
[4] = cited from earlier work
[5] = prior art statement; cited from earlier work

With `C[C@H](C(=O)O)c1ccc2oc(-c3ccc(F)cc3)nc2c1` (racemic) [Example 1, salt of (+)2-(4-fluorophenyl)-alpha-methyl-5-benzoxazole acetic acid with DL-lysine] the LD50 ([1]; expressed as flunoxaprofen) was 720 mg/kg, the “TI (therapeutic index) LD50 /ED50” value ([2]; listed as Salt of flunoxaprofen with DL-lysine) was 129.96 and the ED50 ([2]; expressed as flunoxaprofen) was 5.54 mg/kg. The solubility ([3]; water) was 1000 mg/mL.
With `C[C@H](C(=O)O)c1ccc2oc(-c3ccc(F)cc3)nc2c1` [Example 2] the “water-solubility (in words)” value ([3]; compared with Example 1) was “as in Example 1”.
For `C[C@H](C(=O)O)c1ccc2oc(-c3ccc(F)cc3)nc2c1` [Flunoxaprofen, (+)2-(4-fluorophenyl)-alpha-methyl-5-benzoxazole acetic acid], the LD50 [1] was 724 mg/kg, the “TI (therapeutic index) LD50 /ED50” value [2] was 121.18 and the ED50 [2] was 5.97 mg/kg. For the same compound, the “activity of the dextrorotatory form” value ([4]; Italian patent No. 1,080,779) was “particularly active”, the “anti-inflammatory, analgesic and antipyretic activity” value ([4]; J. Medic. Chem. 1975, vol 18, No. 1, pp 53-58) was “considerable anti-inflammatory, analgesic and antipyretic activity” and the water-solubility [5] was “very limited”.
Work on `O=C(O)Cc1ccccc1Nc1c(Cl)cccc1Cl` [Diclofenac] yielded an ED50 [2] of 10 mg/kg.

Source: US5120851A, “Preparation process for making water-soluble lysine salts of (+)2-(4-fluorophenyl)-alpha-methyl-5-benzoxazole acetic acid” (Euroresearch S.r.l., priority 1988, dated 1992)
